Experimental data published in patent US12195456B1, “Single molecules having mixed CDK4, CDK6, PLK1 targeting properties” (priority 2019, dated 2025).
“Also recorded” adds a separate entry of the source.

Experiments:
MDA-MB-231 TNBC cells = experiment: In vitro growth inhibition (SRB), MDA-MB-231; type: cell-based
Protocol: (§1) In vitro growth inhibition assay: Growth inhibitory potency was evaluated using the SRB assay. Briefly, cells were plated in 96-well in triplicate and treated with drugs (0.0065 μM to 100 μM) 24 h after seeding. Following drug treatment, the cells were fixed using 50 μl of cold TCA (50%) for 1 h at 4° C., washed five times with tap water, and stained for 30 min at room temperature with SRB (0.4%) in acetic acid (0.5%). The plates were subsequently rinsed five times with acetic acid (1%) and allowed to air dry. The resulting purple residue was dissolved in Tris base (200 μl, 10 mM), and optical densities read on a ELx808 BioTek microplate reader. […] values were determined using the GraphPad Prism software.

[1] = tested on: CDK4-mediated Rb phosphorylation (Ser780); experiment: Immunoblotting of Rb phosphorylation in TNBC cells; type: cell-based
Text: (§2) As expected, at these high concentrations, the relative % of inhibition is saturated at nearly 100% for both CDK4 and CDK6. To validate CDK4/6 and PLK1 as functional KP108 targets, we then assessed CDK4-mediated Rb phosphorylation (Ser780) and PLK1-mediated autophosphorylation (Thr210) in vitro.
(§3) As PLK1 is overexpressed in 80% of metastatic breast cancers and the fact that it acts by blocking the G2-M phase of the cell cycle, this provides an attractive added value for KP108, further expanding its potential tumor growth inhibitory capacity.
(§4) Western Blot After washing the infected cells with ice-cold PBS twice, 300 μL of ice-cold cell lysis buffer (1M Tris-HCl, 5M NaCl, 10% Triton, 100 mM EDTA, 100 mM Na3VO4, ×100 Protease Inhibitor, 10× Phosphatase Inhibitor) was added to the dish. All the adherent cells were scraped off the dish and the cell suspension were transferred to a microcentrifuge tube. The cell suspension was left to incubated on ice for 10 min and the cell lysate mixture was centrifuge at 12,000 RPM for 20 mins at 4° C. The supernatant was transferred to a new microcentrifuge tube on ice. The protein concentration was determined using the BCA Kit (ThermoFisher). The lysate samples were diluted in 5×SDS Buffer and were heated at 95° C. for 5 min. The ladder and the samples were loaded into the wells of a SDS PAGE gel and the gel was then run at 100V. […]

SUM149 TNBC cells = experiment: In vitro growth inhibition (SRB), SUM149; type: cell-based
Protocol: as §1

CDK6/cyclin D3 = CDK6/cyclin D3 (Homo sapiens, UniProt Q00534); experiment: In vitro kinase assay, CDK6/cyclin D3; type: biochemical
Sequence of CDK6/cyclin D3 (Q00534 whole entry): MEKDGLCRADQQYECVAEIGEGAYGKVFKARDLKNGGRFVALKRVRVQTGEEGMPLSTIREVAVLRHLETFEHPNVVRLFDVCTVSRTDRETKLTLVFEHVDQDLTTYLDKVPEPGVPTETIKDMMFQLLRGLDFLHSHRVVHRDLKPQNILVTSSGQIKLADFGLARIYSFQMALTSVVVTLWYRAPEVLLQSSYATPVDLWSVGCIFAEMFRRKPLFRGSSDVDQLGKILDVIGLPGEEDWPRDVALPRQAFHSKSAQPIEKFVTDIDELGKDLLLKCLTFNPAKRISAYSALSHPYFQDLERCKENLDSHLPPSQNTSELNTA
Sequence of CDK6/cyclin D3 (P30281 whole entry partner): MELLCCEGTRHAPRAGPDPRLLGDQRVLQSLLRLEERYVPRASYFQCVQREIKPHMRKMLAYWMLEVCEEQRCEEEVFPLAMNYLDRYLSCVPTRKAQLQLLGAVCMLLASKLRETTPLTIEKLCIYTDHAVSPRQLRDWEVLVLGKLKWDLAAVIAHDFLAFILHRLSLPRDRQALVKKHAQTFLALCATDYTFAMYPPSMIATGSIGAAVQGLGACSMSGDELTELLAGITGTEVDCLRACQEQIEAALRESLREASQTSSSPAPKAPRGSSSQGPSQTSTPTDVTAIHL
Text: (§5) In vitro kinase profiling: To assess on-target and off-target kinase affinity and specificity of our lead inhibitor KP108 in a full kinome profiling, we will test the lead compound against Reaction Biology Corporation four panels (Wild Type. Panel (374 kinases), Mutant Panel (232 kinases), Atypical Panel (20 kinases), Lipid Panel (17 lipid kinases). This was outsourced to Reaction Biology Corporation, a biopharmaceutical company focused on the development of kinase inhibitors (http://www.reactionbiology.com/webapps/site/).

[2] = biological target: Polo-like Kinase-1 (PLK1) (Homo sapiens, UniProt P53350); experiment: Kinase profiling / inhibition of PLK1; type: biochemical; conditions: panel of 50 kinases
Sequence of Polo-like Kinase-1 (PLK1) (P53350 whole entry): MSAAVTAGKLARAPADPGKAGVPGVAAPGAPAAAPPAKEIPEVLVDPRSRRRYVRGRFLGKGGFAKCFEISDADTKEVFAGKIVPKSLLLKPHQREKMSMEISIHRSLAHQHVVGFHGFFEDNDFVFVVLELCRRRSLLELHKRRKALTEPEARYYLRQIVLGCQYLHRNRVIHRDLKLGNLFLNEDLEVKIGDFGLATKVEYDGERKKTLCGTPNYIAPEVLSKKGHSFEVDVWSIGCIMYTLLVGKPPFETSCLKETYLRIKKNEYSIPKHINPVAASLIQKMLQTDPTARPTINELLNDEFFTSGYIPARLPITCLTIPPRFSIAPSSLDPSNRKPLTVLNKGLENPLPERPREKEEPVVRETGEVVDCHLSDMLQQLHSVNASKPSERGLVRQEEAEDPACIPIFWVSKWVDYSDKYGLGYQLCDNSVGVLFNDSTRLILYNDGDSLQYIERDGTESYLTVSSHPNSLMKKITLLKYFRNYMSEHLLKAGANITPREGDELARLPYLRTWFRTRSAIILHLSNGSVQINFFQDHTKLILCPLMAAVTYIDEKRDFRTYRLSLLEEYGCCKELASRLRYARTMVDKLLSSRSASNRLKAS
Text: as §2
(§6) […] This was outsourced to Reaction Biology Corporation, a biopharmaceutical company focused on the development of kinase inhibitors (http://www.reactionbiology.com/webapps/site/).

prostate cancer cells = experiment: In cellulo testing, prostate cancer; type: cell-based
Protocol: (§7) Cell Culture: All the cell lines used were cultured at 37° C. in 5% CO2. HEK293T and MDA were maintained in Dulbecco's Modified Eagle Medium (DMEM) (Wisent Bio) with 10% fetal bovine serum (FBS) (Gibco). SUM159 was maintained in Ham's F-12 media with 5% FBS, 5 μg/mL insulin and 1 μg/mL hydrocortisone (Wisent Bio). HPAF-II was maintained in Eagle's Minimum Essential Medium (EMEM) (Wisent Bio) with 10% FBS. PC-3 was maintained in F-12K medium with 10% FBS.
as §1

[3] = tested on: PLK1-mediated autophosphorylation (Thr210); experiment: Immunoblotting of PLK1 autophosphorylation in TNBC cells; type: cell-based
Text: as §2, §3, §4

pancreatic cancer cells = experiment: In cellulo testing, pancreatic cancer; type: cell-based
Protocol: as §7, §1

[4] = tested on: panel of 50 different kinases; experiment: Kinase profiling against a panel of 50 kinases at 100 nM; type: biochemical; conditions: 100 nM range, except PLK1
Text: as §2, §6

[5] = tested on: SUM159 triple negative breast cancer cells; experiment: ALDH+ cancer stem cell numbers (ALDEFLUOR, flow cytometry), SUM159; type: cell-based, human; conditions: TNBC (SUM159); equimolar concentrations vs existing CDK4/6 inhibitors
Protocol: Flow cytometry was used to measure the ALDH+ CSC numbers, as previously described^6,11-13. […] As a result, KP108 was further selected as the first lead compound.
ALDEFLUOR assay was performed as described in the manufacturer's protocol, 1×10^6 SUM159 cells were centrifuged and resuspended in 1 ml ALDH assay buffer. 5 μl substrate was added into the cell suspension. For negative control, 500 μl cell suspension were then transferred into a new tube containing 5 μl DEAB. Cells were then incubated for 40 min at 37° C. Percentage of ALDH+ cells were analyzed with Accuri C6 flow cytometer and Flowjo software.

[6] = tested on: MDA-MB-468 Rb-deficient TNBC cells; experiment: Cell cycle progression, Rb-deficient TNBC cells; type: cell-based
CDK4/cyclin D3 = CDK4/cyclin D3 (Homo sapiens, UniProt P11802); experiment: In vitro kinase assay, CDK4/cyclin D3; type: biochemical
Sequence of CDK4/cyclin D3 (P11802 whole entry): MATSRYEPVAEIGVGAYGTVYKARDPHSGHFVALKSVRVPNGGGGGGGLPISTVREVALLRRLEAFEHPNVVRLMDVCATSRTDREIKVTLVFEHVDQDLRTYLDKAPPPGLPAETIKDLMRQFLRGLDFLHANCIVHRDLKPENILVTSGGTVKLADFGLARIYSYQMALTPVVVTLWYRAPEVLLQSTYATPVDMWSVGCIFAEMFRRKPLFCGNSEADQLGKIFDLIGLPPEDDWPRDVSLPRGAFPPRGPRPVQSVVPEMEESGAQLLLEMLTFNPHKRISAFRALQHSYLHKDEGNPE
Sequence of CDK4/cyclin D3 (P30281 whole entry partner): as the sequence (P30281 whole entry partner) above
Text: as §5

SUM159 TNBC xenografts = experiment: Orthotopic SUM159 TNBC xenograft (mammary fat pad); type: in vivo, NSG mice
Protocol: We further assessed our compound on breast cancer tumorigenesis in vivo, through orthotopic transplantation of SUM159 TNBC cells into the mammary fat pad of NSG mice. […] Drugs were administered through i.p. daily injections for two weeks (50 mg/kg) and tumor volumes were measured, as per our team optimized protocol^10,19.
In vivo studies: All mice were housed and handled in accordance to the approved guidelines of the Canadian Council on Animal Care (CCAC) “Guide to the Care and Use of Experimental Animals” and under the conditions and procedures approved by the Animal Care Committee of McGill University (AUP #7497). The NSG mouse breeders were purchased from Jackson Laboratory (California, US). Female and male NSG mice between 7 and 9 weeks of age were bred and maintained in the animal facility of the Research Institute of the McGill University Health Center, as per the guidelines of the McGill University Animal Care Committee.
Xenograft model: Human breast cancer cells, SUM159 (1×10^6/mouse) were diluted in 1:1 with Matrigel and then inoculated in 8-week old, female NSG mice by mammary fat pad route to generate breast cancer tumor. Tumor sizes were measured with a digital electronic caliper three times per week to reach maximum volume of 1000 mm3 prior to euthanasia. Tumor volumes were calculated according to the following formula: [4/3×π×(Length/2)×(Width/2)2] to generate a growth curve.

SUM159 lung metastasis = experiment: Preclinical lung metastasis model (tail vein injection of TNBC cells); type: in vivo; conditions: NSG mice, daily I.P. 50 mg/kg for 2 weeks
Protocol: To then functionally assess our lead in a preclinical model of tumor metastasis, immune-deficient non-obese diabetic scid gamma (NSG) mice were injected intravenously with 10^6 TNBC cells. […] Lungs were collected and stained with Bouin's solution and, the numbers of lung metastatic nodules were quantified. In vivo studies: All mice were housed and handled in accordance to the approved guidelines of the Canadian Council on Animal Care (CCAC) “Guide to the Care and Use of Experimental Animals” and under the conditions and procedures approved by the Animal Care Committee of McGill University (AUP #7497). The NSG mouse breeders were purchased from Jackson Laboratory (California, US). Female and male NSG mice between 7 and 9 weeks of age were bred and maintained in the animal facility of the Research Institute of the McGill University Health Center, as per the guidelines of the McGill University Animal Care Committee. Intravenous injection model: cells (1×106/each) were injected by tail vein route to develop lung metastases. The mice were euthanized with a maximum of 42-day (SUM159) post cancer cells injection. The lung tissues were counted for metastases nodules post Bouin's solution fixation.

PLK family members = experiment: Effects on PLK family members; type: biochemical
[7] = tested on: cell lines representing different models of solid tumors (breast, prostate and pancreatic cancers); experiment: Growth inhibition in cell lines representing different solid tumors; type: cell-based; conditions: all tumor types tested: breast
Protocol: as §1

[8] = tested on: Rb-deficient MDA-MB-438 cell line; experiment: In vitro growth inhibition (SRB), Rb-deficient MDA-MB-438; type: cell-based
Protocol: as §1

[9] = tested on: Rb-positive SUM159 TNBC cells; experiment: Apoptosis assay (AnnexinV/PI), SUM159; type: cell-based, human
Protocol: (§8) Apoptosis assay: Apoptotic rates were analyzed and quantified by flow cytometry following AnnexinV/PI staining on SUM159 and MDA-MB-468 breast cancer cells.

[10] = tested on: SKBR3 HER2+ breast cancer cells; experiment: ALDH+ cancer stem cell numbers (ALDEFLUOR, flow cytometry), SKBR3; type: cell-based; conditions: equimolar concentrations vs existing CDK4/6 inhibitors
[11] = tested on: Rb-deficient MDA-MB-468 TNBC cells; experiment: Apoptosis assay (AnnexinV/PI), MDA-MB-468; type: cell-based
Protocol: as §8

[12] = tested on: CSCs (tumorsphere formation); experiment: Tumorsphere assay; type: cell-based; conditions: in vitro
Protocol: Tumorsphere assays: Monolayer cells were enzymatically dissociated into single cells with trypsin-EDTA. Cells were plated at 10,000 cells per well in a 24-well low-attachment plate (Coming). Cells were grown for 7 days in DMEM/F12 supplemented with B27 (Invitrogen) in the presence of 10 ng/ml EGF and 10 ng/ml bFGF. Tumorsphere-forming efficiency was calculated as the number of spheres divided by the number of singles cells seeded, expressed as a percentage.

[13] = tested on: SUM159 Rb-positive TNBC cells; experiment: Cell cycle progression, Rb-positive TNBC cells; type: cell-based, human

## C=CC(=O)Nc1ccc(C(=O)N2CCN(c3ccc(Nc4ncc5c(C)c(C(C)=O)c(=O)n(C6CCCC6)c5n4)nc3)CC2)cc1 [KP108, N-(4-(4-(6-((6-acetyl-8-cyclopentyl-5-methyl-7-oxo-7,8-dihydropyrido[2,3-d]pyrimidin-2-yl)amino}pyridin-3-yl)piperazine-1-carbonyl)phenyl)acrylamide]
MDA-MB-231 TNBC cells
  activity in cellulo: great activity in cellulo
[1]
  block of Rb phosphorylation (Ser780): efficiently block phosphorylation
SUM149 TNBC cells
  activity in cellulo: great activity in cellulo
CDK6/cyclin D3; in vitro kinase assay
  IC50: 20.4 nM
CDK6/cyclin D3; kinase panel, 100 nM range
  relative % of inhibition, CDK6: ~100%
[2]
  inhibition of PLK1: efficiently inhibit; also recorded: highlighting PLK1 as a potential KP108 target
Prostate cancer cells
  activity in cellulo: very active
[3]
  block of PLK1 autophosphorylation (Thr210): efficiently block phosphorylation
Pancreatic cancer cells
  activity in cellulo: very active
[4]
  off-target cross-reactivity in kinase panel: no or little cross-reactivity
[5]
  elimination of ALDH+ CSCs: significant superior efficacy; also recorded: nearly maximal efficacy
[6]
  effect on cell cycle progression: efficiently induce G2 arrest; also recorded: dose-dependent increase in the G2 phase
CDK4/cyclin D3; CDK4 vs CDK6
  selectivity to CDK4 than CDK6: 26 times
CDK4/cyclin D3; in vitro kinase assay
  IC50: 0.77 nM
CDK4/cyclin D3; kinase panel, 100 nM range
  relative % of inhibition, CDK4: ~100%
SUM159 TNBC xenografts; NSG mice, i.p. daily for two weeks, 50 mg/kg
  primary tumor development (tumor volume): great efficacy and sustained activity; also recorded: great efficacy in preventing primary tumor development
SUM159 TNBC xenografts; after end of the two-week 50 mg/kg i.p. treatment
  tumor growth once injections were stopped: growth inhibitory effects sustained over time, even once injections were stopped
SUM159 TNBC xenografts; treated mice, 50 mg/kg i.p. daily
  animal health / weight: did not affected animal health
SUM159 lung metastasis
  lung colonization / lung metastatic nodules: great efficacy and sustained activity; also recorded: significantly prevented, to almost completely block lung colonization
PLK family members
  effects on other PLK family members: only targets PLK1
[7]
  IC50 compared with palbociclib: lower IC50in all tumor types tested
[8]
  activity in cellulo: great activity in cellulo
[9]
  pro-apoptotic effect: significant pro-apoptotic effect
[10]
  elimination of ALDH+ CSCs: significant superior efficacy; also recorded: nearly maximal efficacy
[11]
  pro-apoptotic effect: significant pro-apoptotic effect; also recorded: almost complete cell death
[12]
  reduction of tumorsphere formation: superior efficacy in reducing tumorsphere formation
[13]
  effect on cell cycle progression: induce G1 arrest
